Here are results for 2 molecules from patent US6849598B1, “Therapeutic compositions comprising bactericidal/permeability-increasing (BPI) protein products” (XOMA, priority 1995, dated 2005).

Data set [1] concerns S. pneumoniae. The data set is described as follows: Antibiotic susceptibility (MIC, Sensititre Trays) with rBPI21 poloxamer formulations. It counts as cell-based. As to conditions: for MIC: Streptococcus pneumoniae, read-out: Minimum Inhibitory Concentration. As to the method: The effect of therapeutic compositions of rBPI21 formulated with poloxamer, with or without EDTA, was evaluated on the antibiotic susceptibility of the multiple drug resistant A. baumannii, S. pneumoniae, E. faecium and P. aeruginosa organisms of Example 5. Therapeutic compositions were prepared containing 2 mg/mL rBPI21, (5 mM sodium citrate, 150 mM NaCl) with a 0.2% (w/v) concentration of PLURONIC F68, P103, P104, P105 or P123. The effect on the antibiotic susceptibility of the organisms was determined in Mueller-Hinton Broth plus Cations (CSMHB, Remel), or 40% pooled human serum in CSMHB (Sigma, St. Louis, Mo.), as follows.
Isolated colonies of the organism from overnight cultures were suspended in Microscan® Inoculum Water to a concentration equivalent to a 0.5 McFarland Standard (approximately 1×10^8 CFU/ml), determined using a Microscan® turbidimeter. Aliquots were transferred to either CSMHB or 40% pooled human serum in CSMHB. Each tube contained either a final concentration of 16 μg/mL rBPI21 or an equivalent volume of control buffer. Minimal inhibitory concentrations (MIC) for each antibiotic tested, i.e. the lowest concentration of antibiotic which inhibits visible growth, were determined using gram-negative (MB and MC) and gram-positive (MA) Sensititre Trays (Radiometer America, Westlake, Ohio), which allow for the rapid and simultaneous survey of a broad spectrum of standard antibiotics. Any other antimicrobial panel systems known in the art, such as the Microscan® (Dade Microscan, Sacramento, Calif.), Pasco (DIFCO, Detroit, Mich.) and Alamar (Alamar, Sacramento, Calif.) systems, may alternatively be used to assay for antibiotic susceptibility.
Tables 12-15 below display a summary of the results of the antibiotic screening panels, reported for each strain tested as the MIC of the tested antibiotics in the presence of the indicated rBPI21 therapeutic composition. The antibiotic susceptibility standards (interpretation of an MIC as clinically resistant (R), intermediate (I) or susceptible (S) according to NCCLS standards) applicable to the organism tested appear in superscript next to the MIC.

In data set [2] the test system is gram-negative bacteria. To be noted: broad range of gram-negative bacteria; Elsbach and Weiss (1992); cited from earlier work.
Data set [3] deals with gram-positive organisms (Staphylococcus aureus, Staphylococcus epideimidis, Streptococcus faecalis, Bacillus subtilis, Micrococcus Iysodeikticus, Listeria …). As to conditions: BPI at 10^−6 M or 160 μg/ml; pH of either 7.0 or 5.5; cited from earlier work.
The test system of data set [4] is Candida albicans and Candida parapsilosis. As to conditions: BPI at 10^−6 M; pH 7.0 or 5.5; cited from earlier work.
Data set [5] has as its system human, rabbit and sheep red blood cells and several human tumor cell lines. As to conditions: BPI at 10^−6 M; cited from earlier work.
Where [6] appears, read: CSMHB, 16 μg/mL rBPI21 with F68.
The mark [7] stands for this setting: CSMHB, 16 μg/mL rBPI21 with P103.
[8] abbreviates: CSMHB, 16 μg/mL rBPI21 with P104.
[9] abbreviates: CSMHB, 16 μg/mL rBPI21 with P105.
Where [10] appears, read: CSMHB, 16 μg/mL rBPI21 with P123.
Setting [11] is: Serum, 16 μg/mL rBPI21 with F68.
Where [12] appears, read: Serum, 16 μg/mL rBPI21 with P103.
The mark [13] stands for this setting: Serum, 16 μg/mL rBPI21 with P104.
[14] abbreviates: Serum, 16 μg/mL rBPI21 with P105.
[15] abbreviates: Serum, 16 μg/mL rBPI21 with P123.

In brackets after ≈: the same amount, converted by molar mass. Read-outs that look alike come from different tables or passages of the source. Where only a bound is given, the exact number is not on record here.

Take `Cc1onc(-c2ccccc2)c1C(=O)N[C@@H]1C(=O)N2[C@@H]1SC(C)(C)[C@@H]2C(=O)O` [Oxacillin]: the “susceptibility interpretation of MIC (superscript)” value in data set [1] (setting [6]) is recorded as “R”; in data set [1] (setting [7]), “S”; in data set [1] (setting [8]), “S”; in data set [1] (setting [9]), “S”; in data set [1] (setting [10]), “S”; in data set [1] (CSMHB, Control (no BPI)) it was “R”. For the same molecule, the “susceptibility interpretation of MIC (superscript)” value in data set [1] (setting [11]) is “R”; in data set [1] (setting [12]), “R”; in data set [1] (setting [13]), “R”; in data set [1] (setting [14]), “R”; in data set [1] (setting [15]) it was “R”; in data set [1] (Serum, Control (no BPI)), “R”. Also, the MIC in data set [1] (setting [6]) is 32 µg/mL (≈ 79.7 µM); in data set [1] (setting [7]), under 0.25 µg/mL; in data set [1] (setting [8]), 0.5 µg/mL (≈ 1.25 µM); in data set [1] (setting [9]), 1 µg/mL (≈ 2.49 µM); in data set [1] (setting [10]) it was 0.5 µg/mL (≈ 1.25 µM); in data set [1] (CSMHB, Control (no BPI)) it was 32 µg/mL (≈ 79.7 µM). The MIC in data set [1] (setting [11]) was over 32 µg/mL; in data set [1] (setting [12]), 32 µg/mL (≈ 79.7 µM); in data set [1] (setting [13]) it was 32 µg/mL (≈ 79.7 µM); in data set [1] (setting [14]), 32 µg/mL (≈ 79.7 µM); in data set [1] (setting [15]) it was 32 µg/mL (≈ 79.7 µM); in data set [1] (Serum, Control (no BPI)) it was 32 µg/mL (≈ 79.7 µM).

B1: BPI: bactericidal/permeability-increasing protein isolated from granules of mammalian polymorphonuclear leukocytes (protein, UniProt P17213 32-487, looked up)
Bactericidal …: VNPGVVVRISQKGLDYASQQGTAALQKELKRIKIPDYSDSFKIKHLGKGHYSFYSMDIREFQLPSSQISMVPNVGLKFSISNANIKISGKWKAQKRFLKMSGNFDLSIEGMSISADLKLGSNPTSGKPTITCSSCSSHINSVHVHISKSKVGWLIQLFHKKIESALRNKMNSQVCEKVTNSVSSELQPYFQTLPVMTKIDSVAGINYGLVAPPATTAETLDVQMKGEFYSENHHNPPPFAPPVMEFPAAHDRMVYLGLSDYFFNTAGLVYQEAGVLKMTLRDDMIPKESKFRLTTKFFGTFLPEVAKKFPNMKIQIHVSASTPPHLSVQPTGLTFYPAVDVQAFAVLPNSSLASLFLIGMHTTGSMEVSAESNRLVGELKLDRLLLELKHSNIGPFPVELLQDIMNYIVPILVLPRVNEKLQKGFPLPTPARVQLYNVVLQPHQNFLLFGADVVYK
Regarding B1, the “concentrations at which BPI exhibits anti-bacterial activity (as low as)” value in data set [2] is listed as 10^−8 to 10^−9 M. In addition, the “toxic effect on gram-positive organisms” value in data set [3] is reported as “no toxic effect”. The “toxic effect on fungi” value in data set [4] is given as “no toxic effect”. Besides, the “toxicity to higher eukaryotic cells” value in data set [5] is “non-toxic”.
